These results are taken from ChEMBL document CHEMBL1201862, “PubChem BioAssay data set” (2004).

Test systems include Hs-578T; M14; SN12C; LOX IMVI; NCI-H522; CAKI-1; A498; ACHN; HCT-116; RXF 393; SK-MEL-2; SF-295; SK-MEL-5; OVCAR-8; PC-3; SW-620; NCI-H226; CCRF-CEM; IGROV-1; SNB-75.
Holding throughout (test): NCI tumour cell line growth inhibition, 48 h

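In this assay, cells in 96-well plates receive the compound at five concentrations for 48 hours. Endpoints are linearly interpolated between the surrounding concentrations. GI50 marks 50% less growth.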 Calls of active or inactive are those of the source. Rule as the data show it: active = GI50 up to about 1.1 µM and inactive = higher.

Regarding `CCC(=O)OCN1C(=O)C=CC1=O`, the GI50 with Hs-578T was 10.1 µM (inactive); with M14, 18.3 µM (inactive); with SN12C, 18.4 µM (inactive); in the experiment with LOX IMVI, 18.5 µM (inactive); in the experiment on NCI-H522, 1.91 µM (inactive); in the experiment with CAKI-1, 5.08 µM (inactive). The GI50 in the experiment on A498 is > 44.5 µM (inactive); in the experiment on ACHN, 8.2 µM (inactive); with HCT-116, 16.2 µM (inactive); in the experiment with RXF 393, 16.2 µM (inactive); in the experiment on SK-MEL-2 it was 15.7 µM (inactive); in the experiment with SF-295, > 44.7 µM (inactive). Moreover, the GI50 was 27.5 µM (inactive) in the experiment on SK-MEL-5; 18.3 µM (inactive) with OVCAR-8; 17.1 µM (inactive) in the experiment with PC-3; 2.01 µM (inactive) with SW-620; 41.9 µM (inactive) with NCI-H226; 0.445 µM (active) in the experiment with CCRF-CEM. The GI50 in the experiment with IGROV-1 was 18.4 µM (inactive).

With `N=C(N)SC(c1ccccc1)c1ccccc1`, the GI50 in the experiment with Hs-578T is 27.1 µM (inactive); with M14 it was 11.4 µM (inactive); in the experiment on SN12C, 16 µM (inactive); in the experiment on LOX IMVI, 15.2 µM (inactive); in the experiment on NCI-H522, 13.2 µM (inactive); in the experiment with CAKI-1, 13.5 µM (inactive). Besides, the GI50 was 17.3 µM (inactive) with A498; 14.9 µM (inactive) in the experiment with ACHN; 12.2 µM (inactive) with HCT-116; 6.52 µM (inactive) in the experiment on RXF 393; 15 µM (inactive) with SK-MEL-2; 16.9 µM (inactive) in the experiment on SF-295. Also, the GI50 in the experiment on SK-MEL-5 is 17.3 µM (inactive); in the experiment with OVCAR-8 it was 15.3 µM (inactive); in the experiment on PC-3 it was 14.3 µM (inactive); with SW-620 it was 16.8 µM (inactive); in the experiment on NCI-H226, 33.8 µM (inactive); in the experiment with CCRF-CEM, 10.5 µM (inactive). In the experiment with IGROV-1, the GI50 was 18.5 µM (inactive).

As to `Cc1nc2ccccc2c(=O)n1NC(=O)c1ccccc1[N+](=O)[O-]`, the GI50 was 33.9 µM (inactive) with Hs-578T; > 100 µM (inactive) in the experiment on M14; > 100 µM (inactive) with SN12C; > 100 µM (inactive) with LOX IMVI; > 100 µM (inactive) in the experiment with NCI-H522; > 100 µM (inactive) in the experiment on A498. In addition, the GI50 with ACHN was > 100 µM (inactive); in the experiment with HCT-116, > 100 µM (inactive); with RXF 393, > 10 µM (inactive); with SF-295, > 100 µM (inactive); in the experiment on SK-MEL-5, > 100 µM (inactive); with OVCAR-8, > 10 µM (inactive). In addition, the GI50 in the experiment on PC-3 is > 100 µM (inactive); in the experiment on SW-620 it was > 100 µM (inactive); in the experiment with NCI-H226, > 100 µM (inactive); with SNB-75 it was 81.5 µM (inactive); with CCRF-CEM, > 100 µM (inactive); in the experiment with IGROV-1, > 100 µM (inactive).

For the compound `COc1ccc(/C=C\c2cc(OC)c(OC)c(OC)c2)cc1OC(=O)CC(N)C(=O)O` (centres undefined), the GI50 in the experiment on Hs-578T is 0.000426 µM (active); in the experiment on M14, 0.00247 µM (active); with SN12C, 0.00521 µM (active); in the experiment on LOX IMVI it was 0.00254 µM (active); with NCI-H522 it was 0.00132 µM (active); in the experiment on CAKI-1 it was 0.307 µM (active). Further, the GI50 in the experiment on A498 was 0.00269 µM (active); in the experiment with ACHN, 0.00437 µM (active); with HCT-116, 0.00103 µM (active); in the experiment with RXF 393, 0.00166 µM (active); in the experiment on SF-295, 0.0021 µM (active); in the experiment on OVCAR-8 it was 0.00301 µM (active). Moreover, the GI50 with PC-3 was 0.000776 µM (active); with SW-620, 0.00135 µM (active); in the experiment with NCI-H226, 0.054 µM (active); in the experiment with SNB-75, 0.000459 µM (active); with CCRF-CEM, 0.000418 µM (active); in the experiment with IGROV-1, 0.0124 µM (active).

Turning to `Nc1ncnc2nc(N3CCN(CCO)CC3)[nH]c12`, the GI50 in the experiment on Hs-578T, with M14, with SN12C, in the experiment on LOX IMVI, in the experiment on NCI-H522 and in the experiment on CAKI-1 was > 100 µM (inactive) each time. Also, the GI50 with A498, in the experiment on ACHN, in the experiment with HCT-116, in the experiment on RXF 393, with SK-MEL-2 and in the experiment on SF-295 was > 100 µM (inactive) in each case. The GI50 in the experiment with SK-MEL-5, with OVCAR-8, in the experiment on PC-3, in the experiment with SW-620, in the experiment with NCI-H226 and in the experiment on CCRF-CEM was > 100 µM (inactive) in each case. Further, the GI50 with IGROV-1 is > 100 µM (inactive).

Consider `O=C1c2cc(Cl)ccc2N=C(NCCCl)C2CSCN12` (centres undefined), for which the GI50 with Hs-578T is 86.5 µM (inactive); in the experiment with M14, > 100 µM (inactive); in the experiment on SN12C, > 100 µM (inactive); in the experiment with LOX IMVI it was > 100 µM (inactive); with NCI-H522 it was 24.3 µM (inactive); in the experiment on CAKI-1, > 100 µM (inactive). The GI50 in the experiment with A498, with ACHN, in the experiment on HCT-116, in the experiment on RXF 393, with SK-MEL-2 and in the experiment on SF-295 was > 100 µM (inactive) throughout. Further, the GI50 is > 100 µM (inactive) with SK-MEL-5; > 100 µM (inactive) with OVCAR-8; > 100 µM (inactive) in the experiment with PC-3; > 100 µM (inactive) with SW-620; > 100 µM (inactive) in the experiment on NCI-H226; 78.7 µM (inactive) with CCRF-CEM. The GI50 in the experiment with IGROV-1 is > 100 µM (inactive).

For the compound `COC(=O)[C@@H]1C[C@@]2(C3C=CN(C(=O)C(F)(F)F)C=C3)c3ccccc3N(C(=O)C(F)(F)F)[C@H]2N1C(=O)OC`, the GI50 is 49.7 µM (inactive) with Hs-578T; > 100 µM (inactive) with M14; 56.9 µM (inactive) with SN12C; 44.5 µM (inactive) with LOX IMVI; 26.8 µM (inactive) in the experiment on NCI-H522; 65.3 µM (inactive) with CAKI-1. The GI50 in the experiment on A498 is > 100 µM (inactive); in the experiment with ACHN, > 100 µM (inactive); with HCT-116, > 100 µM (inactive); in the experiment on RXF 393 it was 24.5 µM (inactive); in the experiment on SF-295, > 100 µM (inactive); in the experiment on SK-MEL-5, 70 µM (inactive). Further, the GI50 is > 100 µM (inactive) with OVCAR-8; 70.8 µM (inactive) in the experiment with PC-3; 47.3 µM (inactive) with SW-620; > 100 µM (inactive) in the experiment with NCI-H226; 20.1 µM (inactive) in the experiment on SNB-75; 31.7 µM (inactive) in the experiment with CCRF-CEM. Further, in the experiment with IGROV-1, the GI50 was > 100 µM (inactive).

Take `O=C(Cc1ccccc1)N/N=C(/CCN1CCCC1)CC(c1ccccc1)c1c(O)c2ccccc2oc1=O` (centres undefined): the GI50 in the experiment on Hs-578T was 76.7 µM (inactive); in the experiment with M14 it was > 100 µM (inactive); in the experiment with LOX IMVI it was 17.3 µM (inactive); in the experiment with NCI-H522 it was 59 µM (inactive); in the experiment on CAKI-1, > 100 µM (inactive); in the experiment with A498 it was 28 µM (inactive). Moreover, the GI50 in the experiment with ACHN is > 100 µM (inactive); with HCT-116 it was 80.2 µM (inactive); in the experiment on SK-MEL-2 it was > 100 µM (inactive); in the experiment with SK-MEL-5, > 100 µM (inactive); in the experiment on OVCAR-8, > 100 µM (inactive); with PC-3, > 100 µM (inactive). For the same compound, the GI50 in the experiment on SW-620 was > 100 µM (inactive); in the experiment on NCI-H226 it was > 100 µM (inactive); in the experiment with SNB-75, > 100 µM (inactive); in the experiment on CCRF-CEM, 48.9 µM (inactive); in the experiment with IGROV-1, > 100 µM (inactive).

On to `CC(C)(C)C1CC[C@H](O)[C@H]([C@@H](O)CC2CC(=O)N(c3ccccc3)C(=O)C2)C1` (some centres undefined), for which the GI50 is > 100 µM (inactive) in the experiment with Hs-578T; 43.8 µM (inactive) with M14; > 100 µM (inactive) with SN12C; 49.3 µM (inactive) in the experiment on LOX IMVI; > 100 µM (inactive) with NCI-H522; > 100 µM (inactive) in the experiment on CAKI-1. Also, the GI50 in the experiment on A498 is > 100 µM (inactive); in the experiment on ACHN, 69 µM (inactive); in the experiment on HCT-116 it was 60.5 µM (inactive); with RXF 393, 64 µM (inactive); in the experiment on SF-295, > 100 µM (inactive); with SK-MEL-5, 45.2 µM (inactive). For the same compound, the GI50 with OVCAR-8 is 50.7 µM (inactive); in the experiment with PC-3 it was 91.8 µM (inactive); in the experiment with SW-620, > 100 µM (inactive); with NCI-H226, > 100 µM (inactive); in the experiment on SNB-75 it was > 100 µM (inactive); in the experiment on CCRF-CEM it was 51.9 µM (inactive). In the experiment on IGROV-1, the GI50 is > 100 µM (inactive).

On to `CC(C)N1[C@@H]2CCCC[C@H]2N(C(C)C)P1(=O)C(=O)/C=C/c1ccccc1`, for which the GI50 in the experiment on Hs-578T was 1.71 µM (inactive); in the experiment with M14 it was 2.02 µM (inactive); in the experiment with SN12C, 1.99 µM (inactive); with LOX IMVI it was 2.03 µM (inactive); in the experiment on NCI-H522, 1.53 µM (inactive); with CAKI-1 it was 2.54 µM (inactive). Further, the GI50 is 2.75 µM (inactive) with A498; 2.69 µM (inactive) with ACHN; 1.96 µM (inactive) in the experiment on HCT-116; 1.69 µM (inactive) with RXF 393; 2.72 µM (inactive) in the experiment with SK-MEL-2; 10.6 µM (inactive) with SF-295. The GI50 is 1.5 µM (inactive) in the experiment on SK-MEL-5; 1.73 µM (inactive) in the experiment on OVCAR-8; 4.18 µM (inactive) in the experiment on PC-3; 2.58 µM (inactive) with SW-620; 3.52 µM (inactive) in the experiment on NCI-H226; 1.98 µM (inactive) with IGROV-1.

Turning to `CCN(CC(COc1ccc2c(c1)[n+]([O-])nc(N)[n+]2[O-])OC(C)=O)C(C)=O` (centres undefined), the GI50 in the experiment on Hs-578T is 51.3 µM (inactive); with M14 it was 89.3 µM (inactive); with SN12C, > 100 µM (inactive); with LOX IMVI, 58.3 µM (inactive); in the experiment on NCI-H522 it was 16.4 µM (inactive); in the experiment on CAKI-1 it was > 100 µM (inactive). Moreover, the GI50 in the experiment on A498 is 25.9 µM (inactive); with ACHN, > 100 µM (inactive); in the experiment on HCT-116 it was 78.7 µM (inactive); in the experiment on SK-MEL-2 it was > 100 µM (inactive); in the experiment with SF-295, > 100 µM (inactive); in the experiment with SK-MEL-5 it was 32 µM (inactive). The GI50 in the experiment with OVCAR-8 is 42.1 µM (inactive); in the experiment on PC-3 it was 76.9 µM (inactive); in the experiment on SW-620 it was > 100 µM (inactive); in the experiment on NCI-H226, > 100 µM (inactive); in the experiment on SNB-75 it was 35.8 µM (inactive); in the experiment with CCRF-CEM it was 48.2 µM (inactive). Further, in the experiment on IGROV-1, the GI50 is 29.1 µM (inactive).
